Among the data in publication PMC4688987, “Characterization of Toxoplasma gondii glyoxalase 1 and evaluation of inhibitory effects of curcumin on the enzyme and parasite cultures” (Parasites & Vectors, 2015) are Ki values, retold here.

The assay addresses T1, rTgGlo1 (recombinant Toxoplasma gondii glyoxalase 1) (Toxoplasma gondii, UniProt A0A7J6JV59).
T1 construct: gene TGRH88_062270; full-length ORF (1008 nt, printed 336 residues) in pRSETb, His-tagged, E. coli BL21(DE3)pLysS; S-hexylglutathione-agarose then Ni-NTA; two glyoxalase domains 20-167 and 181-325
T1 sequence (A0A7J6JV59 1-336): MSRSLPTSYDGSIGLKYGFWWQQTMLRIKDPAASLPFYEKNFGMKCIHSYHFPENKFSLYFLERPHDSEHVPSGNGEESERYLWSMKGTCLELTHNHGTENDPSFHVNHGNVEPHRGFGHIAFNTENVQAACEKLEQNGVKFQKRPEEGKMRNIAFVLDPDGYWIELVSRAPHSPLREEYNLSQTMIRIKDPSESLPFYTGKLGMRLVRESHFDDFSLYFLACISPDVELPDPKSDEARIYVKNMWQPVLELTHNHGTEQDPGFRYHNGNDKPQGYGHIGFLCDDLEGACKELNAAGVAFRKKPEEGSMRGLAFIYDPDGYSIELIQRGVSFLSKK
Put plainly: spectrophotometric at […] nm, Lineweaver-Burk. The class given is biochemical.

What is called Ki is a dissociation constant, usually derived from enzyme kinetics or from competition with a known ligand. For `COc1cc(/C=C/C(=O)CC(=O)/C=C/c2ccc(O)c(OC)c2)ccc1O` [curcumin], the Ki amounted to 12.9 ± 0.5 µM.
